Series [1] deals with T1, Alpha-1B adrenergic receptor (Homo sapiens, UniProt P35368).
T1 sequence (P35368 whole entry): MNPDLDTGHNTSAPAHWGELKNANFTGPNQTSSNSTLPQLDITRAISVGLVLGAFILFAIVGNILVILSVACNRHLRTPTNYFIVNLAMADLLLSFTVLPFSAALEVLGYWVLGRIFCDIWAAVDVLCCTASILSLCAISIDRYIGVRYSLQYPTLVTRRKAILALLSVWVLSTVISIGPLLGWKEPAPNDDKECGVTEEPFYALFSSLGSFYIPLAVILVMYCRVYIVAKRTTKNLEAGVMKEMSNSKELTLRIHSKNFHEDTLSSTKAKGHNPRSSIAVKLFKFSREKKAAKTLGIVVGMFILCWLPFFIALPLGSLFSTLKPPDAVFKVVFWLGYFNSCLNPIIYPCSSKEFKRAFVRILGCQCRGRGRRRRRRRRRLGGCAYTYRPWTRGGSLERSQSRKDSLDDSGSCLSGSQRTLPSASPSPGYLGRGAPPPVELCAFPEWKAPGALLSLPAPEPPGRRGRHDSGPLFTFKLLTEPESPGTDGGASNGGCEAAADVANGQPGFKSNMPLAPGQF
The experiment in a line: Activation of human alpha-1B adrenergic receptors expressed in rat-1 fibroblasts. Format: functional.

The target of series [2] is T2, Alpha-1A adrenergic receptor (Homo sapiens) (UniProt P35348).
T2 sequence (whole entry): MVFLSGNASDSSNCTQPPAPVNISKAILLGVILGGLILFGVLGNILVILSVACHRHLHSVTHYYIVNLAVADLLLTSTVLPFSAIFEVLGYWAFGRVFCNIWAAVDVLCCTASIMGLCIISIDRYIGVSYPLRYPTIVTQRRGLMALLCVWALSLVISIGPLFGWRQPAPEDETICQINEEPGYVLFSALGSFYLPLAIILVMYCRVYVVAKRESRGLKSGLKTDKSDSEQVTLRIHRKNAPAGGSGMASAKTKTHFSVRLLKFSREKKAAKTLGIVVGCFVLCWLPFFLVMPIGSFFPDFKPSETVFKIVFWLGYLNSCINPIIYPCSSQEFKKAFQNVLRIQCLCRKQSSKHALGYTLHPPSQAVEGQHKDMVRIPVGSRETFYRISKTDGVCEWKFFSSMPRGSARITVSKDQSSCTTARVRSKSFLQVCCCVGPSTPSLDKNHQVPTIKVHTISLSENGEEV
The experiment in a line: Activation of human alpha-1A adrenergic receptor expressed in rat-1 fibroblasts; expressed as a percent of the maximal effect of the phenylephrine. In kind it is functional.

In series [3] the target is T3, Alpha-1B adrenergic receptor (Homo sapiens) (UniProt P35368).
T3 sequence (whole entry): T1 sequence (P35368 whole entry)
The experiment in a line: Activation of human alpha-1B-adrenoceptor receptors expressed in rat-1 fibroblasts as percent maximal effect relative to phenylephrine. Format: functional.

Series [4] addresses T4, Alpha-1A adrenergic receptor (Homo sapiens, UniProt P35348).
T4 sequence (P35348 whole entry): T2 sequence (whole entry)
The experiment in a line: In vitro binding affinity against cloned human alpha-1A-adrenoceptor receptors expressed in rat-1 fibroblasts.

Series [5] deals with T5, Alpha-1D adrenergic receptor (Homo sapiens, UniProt P25100).
T5 sequence (P25100 whole entry): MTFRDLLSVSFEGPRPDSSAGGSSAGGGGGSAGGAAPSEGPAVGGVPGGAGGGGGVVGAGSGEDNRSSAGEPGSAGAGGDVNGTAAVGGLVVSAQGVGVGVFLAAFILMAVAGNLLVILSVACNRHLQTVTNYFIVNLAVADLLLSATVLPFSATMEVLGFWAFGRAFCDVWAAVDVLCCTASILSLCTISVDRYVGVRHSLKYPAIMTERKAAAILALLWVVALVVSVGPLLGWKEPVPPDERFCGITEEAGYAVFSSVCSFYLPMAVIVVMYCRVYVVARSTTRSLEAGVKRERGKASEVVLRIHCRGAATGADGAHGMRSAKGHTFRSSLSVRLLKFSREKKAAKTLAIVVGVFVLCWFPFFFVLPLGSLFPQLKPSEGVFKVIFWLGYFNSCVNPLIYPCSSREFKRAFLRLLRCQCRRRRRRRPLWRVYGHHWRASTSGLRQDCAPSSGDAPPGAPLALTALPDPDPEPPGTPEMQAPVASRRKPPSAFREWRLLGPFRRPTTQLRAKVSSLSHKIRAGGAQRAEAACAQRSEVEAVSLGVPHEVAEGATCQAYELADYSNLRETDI
The experiment in a line: In vitro binding affinity against cloned human alpha-1D-adrenoceptor receptors expressed in rat-1 fibroblasts.

Series [6] in a line: Acid dissociation constant for the compound was determined. Format: ADME.
In series [7] the target is T6, Alpha-1D adrenergic receptor (Homo sapiens) (UniProt P25100).
T6 sequence (whole entry): T5 sequence (P25100 whole entry)
The experiment in a line: Activation of human alpha-1D-adrenoceptor receptor expressed in rat-1 fibroblasts relative to phenylephrine. Format: functional.

In series [8] the target is T1, Alpha-1B adrenergic receptor. The experiment in a line: In vitro binding affinity against cloned human alpha-1B-adrenoceptor receptors expressed in rat-1 fibroblasts.
The target of series [9] is T5, Alpha-1D adrenergic receptor. The experiment in a line: Activation of human Alpha-1D adrenergic receptors expressed in rat-1 fibroblasts. Format: functional.
Series [10] concerns the target T4, Alpha-1A adrenergic receptor. The experiment in a line: Activation of human alpha-1A adrenergic receptor expressed in rat-1 fibroblasts. In kind it is functional.

One may read the EC50 as the concentration needed to bring the measured effect to its halfway point. A higher EC50 goes with a need for much substance. By IC50 is commonly meant the concentration needed to halve the response being measured. Higher therefore signals weaker potency. By pKa is commonly meant the negative logarithm of the acid dissociation constant. For `CSc1ccccc1NCC1=NCCN1`, the EC50 in series [1] was 2 nM; in series [9], 7.94 nM; in series [10], 5.01 nM. In addition, the Max in series [2] worked out at 105%; in series [3], 105%; in series [7], 55%. For the same molecule, the concentration for half-maximal inhibition (IC50) is 107 nM in [4], 19.5 nM in series [5] and 219 nM in series [8]. This molecule also came in with a pKa in series [6] of 10.3.

Values taken from ChEMBL document CHEMBL1134991, “Alpha(1)-adrenoceptor activation: a comparison of 4-(anilinomethyl)imidazoles and 4-(phenoxymethyl)imidazoles to related 2-imidazolines” (Bioorg Med Chem Lett, 2002).
